Data set [1] in a line: 1H NMR titration of guests into the ^2,6AnBox^4+ cavity (binding constant). Conditions: 1H NMR titration in CD3CN; for binding constant Ka: high concentration of salt (saturated with KPF6, 140 mM); for association constant Ka: without salt. The text has this:
The cavity of ^2,6AnBox^4+ is able to bind an anthracene molecule in a face-to-face manner as a result of [π . . . π] interactions. The formation of anthracene⊂^2,6AnBox^4+ (An⊂^2,6AnBox^4+) was confirmed by ^1H NMR titration in CD3CN. […] Further evidence for the formation of the 1:1 complex (anthracene⊂^2,6AnBox^4+) came from XRD analysis. […] It is remarkable that, upon addition of the anthracene guest to the cavity of ^2,6AnBox^4+, a tubular superstructure is formed along the c-axis, whereas along the b-axis, face-to-face [π . . . π] stacks form between the anthracene units. Apparently, the long-range [π . . . π] distances of 3.5 Å between the anthracene units are superstructure-directing in anthracene⊂^2,6AnBox^4+ instead of the anthracene-pyridinium DA interactions. The formation of the anthracene⊂^2,6AnBox^4+ complex implies that [π . . . π] interactions between the anthracene units can be sufficient to overcome the Coulombic repulsion and form the homo[2]catenane, ^2,6AnHC.8PF6.
Preparation of ^2,6AnHC.8PF6 was achieved following two synthetic procedures which consisted of mixing ^2,6AnBox.4PF6 with its precursors ^2,6AnDB.2PF6, and ^2,6AnBPY in the absence (Protocol I) or presence (Protocol II) of tetrabutylammonium hexafluorophosphate (TBAPF6). See Scheme 6. Our attempts to prepare ^2,6AnHC.8PF6 following Protocol I produced very low yields (<5%) of the catenane.
In order to evaluate whether the addition of salt would enhance the synthesis of the rigid ^2,6AnHC.8PF6 homo[2]catenane, we investigated the effects of the addition of tetrabutylammonium hexafluorophosphate (TBAPF6) salt on the formation of the ^2,6AnDB^2+⊂^2,6AnBox^4+ inclusion complex. […] Remarkably, the change in color of the solution from yellow to red implies^38 an increase in the strength of the ^2,6AnDB^2+⊂^2,6AnBox^4+ host-guest complex. In order to estimate the magnitude of the association constant between ^2,6AnDB^2+ and ^2,6AnBox^4+, we prepared (FIG. 2A-2C, Scheme 8) an anthracene-based dicationic model DM^2+. […] Consequently, the efficiency of the catenane synthesis is also found to be sensitive to the addition of TBAPF6. At a salt concentration of 250 mM, the homo[2]catenane ^2,6AnHC.8PF6 was prepared by mixing ^2,6AnBox.4PF6, ^2,6AnDB.2PF6, and ^2,6AnBPY in a 1:2:2 molar ratio in MeCN resulting in an isolated yield of up to 40%. See Scheme 2. The ^1H NMR spectrum of ^2,6AnHC^8+ was recorded at room temperature in CD3CN. Only three signals are observed which can be assigned to the pyridinium, methylene, and phenylene protons. All other resonances associated with the anthracene units disappear or are broadened at room temperature. In the temperature dependent 41 NMR spectra (data not shown), the signals for the anthracene protons reappear at low temperature and have been assigned based on 2D ROESY NMR spectroscopic measurements. These experiments confirm the dynamic nature of the homo[2]catenane in which the two mechanically interlocked rings undergo relative co-conformational changes at room temperature. The catenane was also characterized by high-resolution mass spectrometry (HR-MS). A characteristic peak corresponding to [M-3 PF6]^3+ is present in the mass spectrum (data no shown) at m/z of 823.7819 which compares well with the calculated value for m/z of 823.7814.
All reagents were purchased from commercial suppliers (Aldrich or Fisher) and used without further purification. Anthracene derivatives, 9,10-bis(4-pyridyl)anthracene (^9.^10AnBPY) and 2,6-bis(4-pyridyl)anthracene (^2,6AnBPY) were synthesized following^1,2 reports in the literature. All reactions and manipulations were carried out under a dry N2 atmosphere using standard Schlenk. Thin-layer chromatography (TLC) was performed on silica gel 60 F254 TLC plates (Merck). Column chromatography was carried out using CombiFlash® Automation Systems (Teledyne ISCO) employing both normal phase (RediSep Rf Gold® Normal-Phase Silica) and reverse phase (RediSep Rf Gold® Reversed-phase C18). […]

The nature of data set [2]: Absorption and photoluminescence spectroscopy in solution. The data set is classed as physicochemical. Conditions: for absorption band (higher-energy band of the anthracene moiety) / absorption, vibronic peak of the anthracene moiety (lower-energy): high dilution; for emission band, vibronic peaks of the anthracene moiety: fluorescence spectroscopy, data not shown; for τ (emission lifetime): 405 nm excitation. An excerpt:
The close proximity of the anthracene units in the mechanically interlocked cyclophanes was expected to give rise to remarkable optical properties distinct from those of the free cyclophanes. We explored the absorption and fluorescence properties of all compounds at high dilution (4×10^−7 M) to avoid reabsorption processes^40 and aggregation effects.^17 All of the optical parameters are summarized in Tables 1 and 2. Initially, we explored the influence of the pyridine/pyridinium units on the optical properties of both ^2,6AnBox^4+ and ^9,10AnBox^4+ cyclophanes. The presence of two pyridinium units within the linker dramatically affect the optical properties of the anthracene moiety. Although ^2,6AnBPY (FIG. 5C) and ^9,10AnBPY display^41 characteristic vibronic peaks associated with the anthracene moiety at 290 and 400 nm, ^2,6AnDB^2+ and ^9,10AnDB^2+ display a shift of the band at 290 to 330 nm (FIG. 5A) and the emergence of a new featureless broad band at 450 nm associated with CT from the anthracene moiety to the pyridinium unit. It is noteworthy that phenylene-bridged bipyridyl linkers (ExBIPY) display^35 a single absorption peak at 325 nm in MeCN, while the anthracene moiety leads to the emergence of some push-pull D-A character.
All reagents were purchased from commercial suppliers (Aldrich or Fisher) and used without further purification. Anthracene derivatives, 9,10-bis(4-pyridyl)anthracene (^9.^10AnBPY) and 2,6-bis(4-pyridyl)anthracene (^2,6AnBPY) were synthesized following^1,2 reports in the literature. All reactions and manipulations were carried out under a dry N2 atmosphere using standard Schlenk. Thin-layer chromatography (TLC) was performed on silica gel 60 F254 TLC plates (Merck). Column chromatography was carried out using CombiFlash® Automation Systems (Teledyne ISCO) employing both normal phase (RediSep Rf Gold® Normal-Phase Silica) and reverse phase (RediSep Rf Gold® Reversed-phase C18). […] All the spectra were baseline-corrected with a MeCN blank sample. The photoluminescence spectra of all samples were obtained with a Fluorolog-3 spectrafluorometer (Horiba Jobin Yvon) in a 2-mm quartz cuvette with 3-nm slit width and a front-phase geometry. The time-correlated single photon counting setup is described elsewhere.^3 Nuclear magnetic resonance (NMR) spectra were recorded on a Bruker Avance III 500 and 600 MHz spectrometers, with working frequencies of 500 and 600 MHz (′H NMR) and 125 MHz (^13C NMR), respectively. Chemical shifts are reported in ppm relative to the signals corresponding to the residual non-deuterated solvents (CD3CN: δ1−1=1.94 ppm and δC=1.32 ppm). High-resolution mass spectra (HRMS) were measured on an Agilent 6210 Time of Flight (TOF) LC-MS, using an ESI source, coupled with Agilent 1100 HPLC stack, using direct infusion (0.6 mL min ^−1). The binding constants were determined using this link: website http://supramolecular.org.^4

Data set [3] deals with MIA PACA2 cancer cells. Kind of data set: Cell growth / toxicity by phase contrast imaging over 48 hours. The class given is cell-based. Conditions: any concentration tested. On the procedure: Cells were cultured for 4 hours then treated with the compounds at a range of concentrations. Upon treatment, cells were placed in a BioTek LionheartFX system, where they were imaged every 20 minutes for 48 hours, under standard culture conditions (37° C., 5% CO2). Phase contrast images were processed and analyzed with BioTek Gen5 analysis software to identify cell number at the start and end of the culture time. There was no significant difference in percent growth either between the two compounds or between the different concentrations and the untreated (0 mM) control.
Cells were grown in standard DMEM (supplemented with 10% Fetal Bovine Serum and 1% Penicillin-Streptomycin, supplier=Corning). Cells were seeded into imaging coverglass chamber 40 hours prior to treatment. Compounds were resuspended in deionized H2O then diluted to the final concentration in media. Cells were treated with compounds for 6 hours prior to imaging.

For data set [4] the following is noted: reported in the literature; cited from earlier work.

As for `c1ccc(C[n+]2ccc(-c3ccc4cc5cc(-c6cc[n+](Cc7ccccc7)cc6)ccc5cc4c3)cc2)cc1` [DM^2+], in data set [1], the “binding constant Ka” value came to 611 M⁻¹ and the “association constant Ka” value was 40 M⁻¹.

As for `c1ccc(C[n+]2ccc(-c3ccc4cc5cc(-c6ccncc6)ccc5cc4c3)cc2)cc1` [MM^+], in data set [1], the “binding constant Ka” value was 540 M⁻¹ and the “association constant Ka” value was 102 M⁻¹.

With `c1cc(-c2ccc3cc4cc(-c5ccncc5)ccc4cc3c2)ccn1` [^2,6AnBPY, 2,6-bis(4-pyridyl)anthracene, reference compound], in data set [2] (MeCN), the “absorption band (higher-energy band of the anthracene moiety)” value is 290 nm and the “absorption, vibronic peak of the anthracene moiety (lower-energy)” value was found to be 400 nm. Also, the “emission band, vibronic peaks of the anthracene moiety” value in data set [2] came out at 440 nm.

Take `[Cl-].[Cl-].[Cl-].[Cl-].c1cc2ccc1C[n+]1ccc(cc1)-c1ccc3cc4cc(ccc4cc3c1)-c1cc[n+](cc1)Cc1ccc(cc1)C[n+]1ccc(cc1)-c1ccc3cc4cc(ccc4cc3c1)-c1cc[n+](cc1)C2` [^2,6AnBox⋅4Cl]: in data set [3], the “toxicity to the cells” value is “Neither the catenane (^2,6AnHC.8Cl) nor the cyclophane (^2,6AnBox⋅4Cl) are toxic to the cells at any concentration tested”.

As for `BrCc1ccc(C[n+]2ccc(-c3ccc4cc5cc(-c6cc[n+](Cc7ccc(CBr)cc7)cc6)ccc5cc4c3)cc2)cc1` [^2,6AnDB^2+], in data set [2] (4 × 10^−7 M, MeCN), the “Φ (PL quantum yield)” value was 7.0%, the λabs turned out to be 453 nm, the λem is recorded as 542 nm and the “τ (emission lifetime)” value is recorded as 10 ns. For the same molecule, in data set [2] (MeCN), the “charge transfer (CT) absorption band” value came to 450 nm and the “absorption band (higher-energy band of the anthracene moiety)” value came out at 330 nm. Besides, the “concentration dependence of excimer/exciplex emission” value in data set [2] (from high concentration to high dilution (10^−8 M)) is on record as “absence of excimer emission at high concentration”. In addition, the “association constant Ka” value in data set [1] stood at 42 M⁻¹.

`c1ccc2c(-c3ccncc3)c3ccccc3c(-c3ccncc3)c2c1` [^9,10AnBPY, 9,10-bis(4-pyridyl)anthracene, reference compound]: in data set [2] (MeCN), the “absorption band (higher-energy band of the anthracene moiety)” value is recorded as 290 nm and the “absorption, vibronic peak of the anthracene moiety (lower-energy)” value is on record as 400 nm. Also, the “emission band, vibronic peaks of the anthracene moiety” value in data set [2] turned out to be 440 nm.

With `c1ccc2c3c4ccccc4c(c2c1)-c1cc[n+](cc1)Cc1ccc(cc1)C[n+]1ccc(cc1)-c1c2ccccc2c(c2ccccc12)-c1cc[n+](cc1)Cc1ccc(cc1)C[n+]1ccc-3cc1` [^9,10AnBox^4+], the “Φ (PL quantum yield)” value in data set [2] (4 × 10^−7 M, MeCN) is 1.3%. Besides, the λabs in data set [2] (4 × 10^−7 M, MeCN) was determined as 415 nm; in data set [2] (DMF, 4 × 10^−7 M), 402 nm; in data set [2] (EtOH, 4 × 10^−7 M) it was 409 nm; in data set [2] (H2O, 4 × 10^−7 M), 419 nm; in data set [2] (Me2SO, 4 × 10^−7 M), 403 nm; in data set [2] (MeCN, 4 × 10^−7 M (Table 2)), 410 nm. In data set [2] (MeOH, 4 × 10^−7 M), this molecule showed a λabs of 402 nm. Besides, the λem in data set [2] (4 × 10^−7 M, MeCN) came out at 566 nm; in data set [2] (DMF, 4 × 10^−7 M), 576 nm; in data set [2] (EtOH, 4 × 10^−7 M), 574 nm; in data set [2] (H2O, 4 × 10^−7 M), 566 nm; in data set [2] (Me2SO, 4 × 10^−7 M) it was 570 nm; in data set [2] (MeCN, 4 × 10^−7 M (Table 2)) it was 566 nm. This molecule returned a λem in data set [2] (MeOH, 4 × 10^−7 M) of 565 nm. Besides, the “τ (emission lifetime)” value in data set [2] (4 × 10^−7 M, MeCN) came to 8.7 ns. In addition, the “Stokes shifts (δ)” value in data set [2] (DMF, 4 × 10^−7 M) was determined as 6793 cm⁻¹; in data set [2] (EtOH, 4 × 10^−7 M), 6502 cm⁻¹; in data set [2] (H2O, 4 × 10^−7 M), 6199 cm⁻¹; in data set [2] (Me2SO, 4 × 10^−7 M), 6966 cm⁻¹; in data set [2] (MeCN, 4 × 10^−7 M (Table 2)), 6371 cm⁻¹; in data set [2] (MeOH, 4 × 10^−7 M) it was 6282 cm⁻¹. Moreover, the λexc amounted to 414 nm in data set [2] (DMF, 4 × 10^−7 M); 418 nm in data set [2] (EtOH, 4 × 10^−7 M); 419 nm in data set [2] (H2O, 4 × 10^−7 M); 408 nm in data set [2] (Me2SO, 4 × 10^−7 M); 416 nm in data set [2] (MeCN, 4 × 10^−7 M (Table 2)); 417 nm in data set [2] (MeOH, 4 × 10^−7 M).

For `BrCc1ccc(C[n+]2ccc(-c3c4ccccc4c(-c4cc[n+](Cc5ccc(CBr)cc5)cc4)c4ccccc34)cc2)cc1` [^9,10AnDB^2+], in data set [2] (MeCN), the “charge transfer (CT) absorption band” value turned out to be 450 nm and the “absorption band (higher-energy band of the anthracene moiety)” value was found to be 330 nm.

Turning to `c1ccc2cc3ccccc3cc2c1` [anthracene, reference compound], the emission lifetime in data set [4] is roughly 18 ns. In data set [1], the “association constant Ka” value was determined as 125 M⁻¹.
